Experimental data published in publication PMC12749166, “Fragment-based drug design of a bacterial kinase inhibitor capable of increasing the antibiotic sensitivity of clinical isolates” (Communications Chemistry, 2025).

System: P. aeruginosa C0307
Test: Checkerboard assay of 83 with kanamycin A
Assay type: cell-based
Conditions: for MIC of kanamycin A: 18 h at 37 °C

Clc1cnc2[nH]ccc2c1-c1ccn[nH]1 [Compound 83] was tested, and the “MIC of kanamycin A” value (0 µg mL^−1 imipenem, [83] 2 µg mL^−1) was 64 µg/mL, the “MIC of kanamycin A” value (0 µg mL^−1 imipenem, [83] 4 µg mL^−1) was 64 µg/mL and the “MIC of kanamycin A” value (0 µg mL^−1 imipenem, [83] 8 µg mL^−1) was 64 µg/mL. For the same compound, the “MIC of kanamycin A” value (0 µg mL^−1 imipenem, [83] 16 µg mL^−1) was 64 µg/mL, the “MIC of kanamycin A” value (0 µg mL^−1 imipenem, [83] 32 µg mL^−1) was 64 µg/mL and the “MIC of kanamycin A” value (0 µg mL^−1 imipenem, [83] 64 µg mL^−1) was 64 µg/mL. The “MIC of kanamycin A” value (0 µg mL^−1 imipenem, [83] 128 µg mL^−1) was 32 µg/mL, the “MIC of kanamycin A” value (0.05 µg mL^−1 imipenem, [83] 2 µg mL^−1) was 64 µg/mL and the “MIC of kanamycin A” value (0.05 µg mL^−1 imipenem, [83] 4 µg mL^−1) was 64 µg/mL. For the same compound, the “MIC of kanamycin A” value (0.05 µg mL^−1 imipenem, [83] 8 µg mL^−1) was 64 µg/mL, the “MIC of kanamycin A” value (0.05 µg mL^−1 imipenem, [83] 16 µg mL^−1) was 64 µg/mL and the “MIC of kanamycin A” value (0.05 µg mL^−1 imipenem, [83] 32 µg mL^−1) was 64 µg/mL. For the same compound, the “MIC of kanamycin A” value (0.05 µg mL^−1 imipenem, [83] 64 µg mL^−1) was 64 µg/mL, the “MIC of kanamycin A” value (0.05 µg mL^−1 imipenem, [83] 128 µg mL^−1) was 32 µg/mL and the “checkerboard well reading (growth)” value (Supp. Figure 3 A, 83 1 µg.mL-1, kanamycin A 0 µg.mL-1) was 1.117. The “checkerboard well reading (growth)” value (Supp. Figure 3 A, 83 1 µg.mL-1, kanamycin A 2 µg.mL-1) was 1.340, the “checkerboard well reading (growth)” value (Supp. Figure 3 A, 83 1 µg.mL-1, kanamycin A 4 µg.mL-1) was 1.454 and the “checkerboard well reading (growth)” value (Supp. Figure 3 A, 83 1 µg.mL-1, kanamycin A 8 µg.mL-1) was 1.268. The “checkerboard well reading (growth)” value (Supp. Figure 3 A, 83 16 µg.mL-1, kanamycin A 0 µg.mL-1) was 1.272, the “checkerboard well reading (growth)” value (Supp. Figure 3 A, 83 16 µg.mL-1, kanamycin A 2 µg.mL-1) was 1.771 and the “checkerboard well reading (growth)” value (Supp. Figure 3 A, 83 16 µg.mL-1, kanamycin A 4 µg.mL-1) was 1.508. The “checkerboard well reading (growth)” value (Supp. Figure 3 A, 83 16 µg.mL-1, kanamycin A 8 µg.mL-1) was 1.668, the “checkerboard well reading (growth)” value (Supp. Figure 3 A, 83 16 µg.mL-1, kanamycin A 16 µg.mL-1) was 1.123 and the “checkerboard well reading (growth)” value (Supp. Figure 3 A, 83 16 µg.mL-1, kanamycin A 32 µg.mL-1) was 1.123. The “checkerboard well reading (growth)” value (Supp. Figure 3 A, 83 16 µg.mL-1, kanamycin A 64 µg.mL-1) was 0.184, the “checkerboard well reading (growth)” value (Supp. Figure 3 A, 83 16 µg.mL-1, kanamycin A 128 µg.mL-1) was 0.041 and the “checkerboard well reading (growth)” value (Supp. Figure 3 A, 83 32 µg.mL-1, kanamycin A 0 µg.mL-1) was 1.376. For the same compound, the “checkerboard well reading (growth)” value (Supp. Figure 3 A, 83 32 µg.mL-1, kanamycin A 2 µg.mL-1) was 1.667, the “checkerboard well reading (growth)” value (Supp. Figure 3 A, 83 32 µg.mL-1, kanamycin A 4 µg.mL-1) was 1.435 and the “checkerboard well reading (growth)” value (Supp. Figure 3 A, 83 32 µg.mL-1, kanamycin A 8 µg.mL-1) was 1.524. The “checkerboard well reading (growth)” value (Supp. Figure 3 A, 83 32 µg.mL-1, kanamycin A 16 µg.mL-1) was 1.359, the “checkerboard well reading (growth)” value (Supp. Figure 3 A, 83 32 µg.mL-1, kanamycin A 32 µg.mL-1) was 1.130 and the “checkerboard well reading (growth)” value (Supp. Figure 3 A, 83 32 µg.mL-1, kanamycin A 64 µg.mL-1) was 0.118. The “checkerboard well reading (growth)” value (Supp. Figure 3 A, 83 32 µg.mL-1, kanamycin A 128 µg.mL-1) was 0.042, the “checkerboard well reading (growth)” value (Supp. Figure 3 A, 83 64 µg.mL-1, kanamycin A 0 µg.mL-1) was 1.213 and the “checkerboard well reading (growth)” value (Supp. Figure 3 A, 83 64 µg.mL-1, kanamycin A 2 µg.mL-1) was 1.320. For the same compound, the “checkerboard well reading (growth)” value (Supp. Figure 3 A, 83 64 µg.mL-1, kanamycin A 4 µg.mL-1) was 1.451, the “checkerboard well reading (growth)” value (Supp. Figure 3 A, 83 64 µg.mL-1, kanamycin A 8 µg.mL-1) was 1.433 and the “checkerboard well reading (growth)” value (Supp. Figure 3 A, 83 64 µg.mL-1, kanamycin A 16 µg.mL-1) was 1.312. For the same compound, the “checkerboard well reading (growth)” value (Supp. Figure 3 A, 83 64 µg.mL-1, kanamycin A 32 µg.mL-1) was 1.055, the “checkerboard well reading (growth)” value (Supp. Figure 3 A, 83 64 µg.mL-1, kanamycin A 64 µg.mL-1) was 0.042 and the “checkerboard well reading (growth)” value (Supp. Figure 3 A, 83 64 µg.mL-1, kanamycin A 128 µg.mL-1) was 0.044. For the same compound, the “checkerboard well reading (growth)” value (Supp. Figure 3 A, 83 128 µg.mL-1, kanamycin A 0 µg.mL-1) was 1.324, the “checkerboard well reading (growth)” value (Supp. Figure 3 A, 83 128 µg.mL-1, kanamycin A 2 µg.mL-1) was 1.439 and the “checkerboard well reading (growth)” value (Supp. Figure 3 A, 83 128 µg.mL-1, kanamycin A 4 µg.mL-1) was 1.308. For the same compound, the “checkerboard well reading (growth)” value (Supp. Figure 3 A, 83 128 µg.mL-1, kanamycin A 8 µg.mL-1) was 1.307, the “checkerboard well reading (growth)” value (Supp. Figure 3 A, 83 128 µg.mL-1, kanamycin A 16 µg.mL-1) was 1.218 and the “checkerboard well reading (growth)” value (Supp. Figure 3 A, 83 128 µg.mL-1, kanamycin A 32 µg.mL-1) was 0.227. The “checkerboard well reading (growth)” value (Supp. Figure 3 A, 83 128 µg.mL-1, kanamycin A 64 µg.mL-1) was 0.039, the “checkerboard well reading (growth)” value (Supp. Figure 3 A, 83 128 µg.mL-1, kanamycin A 128 µg.mL-1) was 0.039 and the “checkerboard well reading (growth)” value (Supp. Figure 3 B, 83 1 µg.mL-1, kanamycin A 0 µg.mL-1) was 1.239. The “checkerboard well reading (growth)” value (Supp. Figure 3 B, 83 1 µg.mL-1, kanamycin A 2 µg.mL-1) was 1.239, the “checkerboard well reading (growth)” value (Supp. Figure 3 B, 83 1 µg.mL-1, kanamycin A 4 µg.mL-1) was 1.159 and the “checkerboard well reading (growth)” value (Supp. Figure 3 B, 83 1 µg.mL-1, kanamycin A 8 µg.mL-1) was 1.192. The “checkerboard well reading (growth)” value (Supp. Figure 3 B, 83 1 µg.mL-1, kanamycin A 16 µg.mL-1) was 1.219, the “checkerboard well reading (growth)” value (Supp. Figure 3 B, 83 1 µg.mL-1, kanamycin A 32 µg.mL-1) was 1.181 and the “checkerboard well reading (growth)” value (Supp. Figure 3 B, 83 1 µg.mL-1, kanamycin A 64 µg.mL-1) was 0.113. The “checkerboard well reading (growth)” value (Supp. Figure 3 B, 83 1 µg.mL-1, kanamycin A 128 µg.mL-1) was 0.042, the “checkerboard well reading (growth)” value (Supp. Figure 3 B, 83 2 µg.mL-1, kanamycin A 0 µg.mL-1) was 1.144 and the “checkerboard well reading (growth)” value (Supp. Figure 3 B, 83 2 µg.mL-1, kanamycin A 2 µg.mL-1) was 1.163. For the same compound, the “checkerboard well reading (growth)” value (Supp. Figure 3 B, 83 2 µg.mL-1, kanamycin A 4 µg.mL-1) was 1.143.
